Reference: patent publication US9617256B2 (priority 2007, dated 2017)
Values after ≈ are worked out from the molar mass of the structure shown.

Experiments:
AECO001 (ATCC25922) = test: MIC broth microdilution, AECO001; format: cell-based, E. coli; conditions: for MIC: Escherichia coli, ATCC25922, read-out: MIC AECO001
Method in brief: (§1)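 CLSI-guided microdilution: bacteria passaged overnight at 35° C. on Mueller-Hinton agar, tested in cation-adjusted broth at a final 3×10^5–7×10^5 CFU/mL across 2-fold drug dilutions, read after 18-24 h at 35° C.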

[1] = system: AECO063 (ATCC25922 bearing an acrAB mutation); test: microbe, parasite or virus in culture; format: cell-based, E. coli; conditions: for MIC: Escherichia coli, ATCC25922, read-out: MIC AECO063
Method in brief: as §1

APAE001 (ATCC27853) = test: MIC broth microdilution, APAE001; format: cell-based, P. aeruginosa; conditions: for MIC: Pseudomonas aeruginosa, ATCC27853, read-out: MIC APAE001, APAE001 is ATCC27853
Method in brief: as §1

[2] = system: APAE006 (strain of P. aeruginosa in which all efflux pumps are inactivated); test: microbe, parasite or virus in culture; format: cell-based; conditions: for MIC: Pseudomonas aeruginosa, read-out: MIC APAE006, P. aeruginosa, all efflux pumps inactivated
Method in brief: (§2)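 For the efflux-deficient P. aeruginosa APAE006, one set of MICs includes polymyxin B nonapeptide at 8 micrograms per milliliter.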

[3] = system: APAE006 in the presence of 8 micrograms per milliliter of polymyxin B nonapeptide; format: cell-based, P. aeruginosa; conditions: in the presence of 8 micrograms per milliliter of polymyxin B nonapeptide
Method in brief: as §2

[4] = system: AABA1060 (clinical isolate of Acinetobacter baumannii); test: MIC broth microdilution, AABA1060; format: cell-based; conditions: for MIC: Acinetobacter baumannii, read-out: MIC AABA1060
Method in brief: as §1

[5] = system: ASAU001 (laboratory strain of S. aureus, ATCC29213); test: MIC broth microdilution, ASAU001; format: cell-based; conditions: for MIC: Staphylococcus aureus, ATCC29213, read-out: MIC ASAU001
Method in brief: as §1

AECO001 HSA AGP = test: MIC broth microdilution, AECO001 HSA AGP; format: cell-based, E. coli; conditions: for MIC: Escherichia coli
Method in brief: as §1

Compound: NC[C@H](NC(=O)c1ccc(C#C/C=C/c2ccc(CN3CCOCC3)cc2)cc1)C(=O)NO [Example 98-1, N—((S)-2-amino-1-hydroxycarbamoyl-ethyl)-4-[(E)-4-(4-morpholin-4-ylmethyl-phenyl)-but-3-en-1-ynyl]-benzamide]
- MIC (AECO001 (ATCC25922)): < 2 µg/mL
- MIC [1]: < 2 µg/mL
- MIC (APAE001 (ATCC27853)): < 2 µg/mL
- MIC [2]: < 2 µg/mL
- MIC APAE006 + PMBN [3]: A (MIC's of 2.0 μg/mL or less = A)
- MIC [4]: 16 to 64 µg/mL (≈ 35.7 to 143 µM)
- MIC [5]: 16 to 64 µg/mL (≈ 35.7 to 143 µM)
- MIC (AECO001 HSA AGP): < 2 µg/mL

Compound: C[C@@H](N)[C@H](NC(=O)c1ccc(C#Cc2ccc(CS(C)(=O)=O)cc2)cc1)C(=O)NO [Example 120-2]
- MIC (AECO001 (ATCC25922)): 2 to 16 µg/mL (≈ 4.66 to 37.3 µM)
- MIC [1]: < 2 µg/mL
- MIC (APAE001 (ATCC27853)): 2 to 16 µg/mL (≈ 4.66 to 37.3 µM)
- MIC [2]: < 2 µg/mL
- MIC APAE006 + PMBN [3]: A (MIC's of 2.0 μg/mL or less = A)
- MIC [4]: 16 to 64 µg/mL (≈ 37.3 to 149 µM)
- MIC [5]: 16 to 64 µg/mL (≈ 37.3 to 149 µM)
- MIC (AECO001 HSA AGP): 16 to 64 µg/mL (≈ 37.3 to 149 µM)

Compound: 3-Amino-N-hydroxy-3-methyl-2-[3-(4-morpholin-4-ylmethyl-phenyl)-propynoylamino]-butyramide [Example 129-1]
- MIC AECO001 (AECO001 (ATCC25922); AECO001 is ATCC25922): A (MIC's of 2.0 μg/mL or less = A)
- MIC AECO063 ([1]; ATCC25922 bearing an acrAB mutation): A (MIC's of 2.0 μg/mL or less = A)
- MIC APAE001 (APAE001 (ATCC27853); APAE001 is ATCC27853): A (MIC's of 2.0 μg/mL or less = A)
- MIC APAE006 ([2]; P. aeruginosa, all efflux pumps inactivated): A (MIC's of 2.0 μg/mL or less = A)
- MIC APAE006 + PMBN [3]: A (MIC's of 2.0 μg/mL or less = A)
- MIC AABA1060 ([4]; clinical isolate of Acinetobacter baumannii): B (MIC's of greater than 2.0 μg/mL to 16.0 μg/mL = B)
- MIC ASAU001 ([5]; S. aureus ATCC29213): D (MIC's of greater than 64.0 μg/mL = D)
- MIC AECO001 HSA AGP (AECO001 HSA AGP): B (MIC's of greater than 2.0 μg/mL to 16.0 μg/mL = B)

Compound: O=C(CNC1CC1)NC[C@H](NC(=O)c1ccc(C#C/C=C/c2ccc(CO)cc2)cc1)C(=O)NO [Example 103-1, N—[(S)-2-(2-cyclopropylamino-acetylamino)-1-hydroxycarbamoyl-ethyl]-4-[(E)-4-(4-hydroxymethyl-phenyl)-but-3-en-1-ynyl]-benzamide]
- MIC (AECO001 (ATCC25922)): < 2 µg/mL
- MIC [1]: < 2 µg/mL
- MIC (APAE001 (ATCC27853)): 2 to 16 µg/mL (≈ 4.2 to 33.6 µM)
- MIC [2]: < 2 µg/mL
- MIC APAE006 + PMBN [3]: A (MIC's of 2.0 μg/mL or less = A)
- MIC [4]: > 64 µg/mL
- MIC [5]: > 64 µg/mL
- MIC (AECO001 HSA AGP): 2 to 16 µg/mL (≈ 4.2 to 33.6 µM)

Compound: C[C@@H](N)[C@H](NC(=O)c1ccc(/C=C/C#Cc2cccc(Cl)c2)cc1)C(=O)NO [Example 114-4]
- MIC (AECO001 (ATCC25922)): < 2 µg/mL
- MIC [1]: < 2 µg/mL
- MIC (APAE001 (ATCC27853)): 2 to 16 µg/mL (≈ 5.03 to 40.2 µM)
- MIC [2]: < 2 µg/mL
- MIC APAE006 + PMBN [3]: A (MIC's of 2.0 μg/mL or less = A)
- MIC [4]: 2 to 16 µg/mL (≈ 5.03 to 40.2 µM)
- MIC [5]: 2 to 16 µg/mL (≈ 5.03 to 40.2 µM)
- MIC (AECO001 HSA AGP): 2 to 16 µg/mL (≈ 5.03 to 40.2 µM)

Compound: O=C(N[C@H](C(=O)NO)c1ccccc1)c1ccc(/C=C/C#Cc2ccc(CN3CCOCC3)cc2)cc1 [Example 110-11]
- MIC (AECO001 (ATCC25922)): < 2 µg/mL
- MIC [1]: < 2 µg/mL
- MIC (APAE001 (ATCC27853)): 16 to 64 µg/mL (≈ 32.3 to 129 µM)
- MIC [2]: < 2 µg/mL
- MIC APAE006 + PMBN [3]: A (MIC's of 2.0 μg/mL or less = A)
- MIC [4]: 16 to 64 µg/mL (≈ 32.3 to 129 µM)
- MIC [5]: 16 to 64 µg/mL (≈ 32.3 to 129 µM)
- MIC (AECO001 HSA AGP): 2 to 16 µg/mL (≈ 4.04 to 32.3 µM)

Compound: CCNCc1ccc(C#Cc2ccc(C(=O)N[C@H](C(=O)NO)[C@@H](C)N)cc2)cc1 [Example 119-6]
- MIC (AECO001 (ATCC25922)): 2 to 16 µg/mL (≈ 5.07 to 40.6 µM)
- MIC [1]: < 2 µg/mL
- MIC (APAE001 (ATCC27853)): < 2 µg/mL
- MIC [2]: < 2 µg/mL
- MIC APAE006 + PMBN [3]: A (MIC's of 2.0 μg/mL or less = A)
- MIC [4]: 16 to 64 µg/mL (≈ 40.6 to 162 µM)
- MIC [5]: 16 to 64 µg/mL (≈ 40.6 to 162 µM)
- MIC (AECO001 HSA AGP): 2 to 16 µg/mL (≈ 5.07 to 40.6 µM)

Compound: C[C@@H](N)[C@H](NC(=O)c1ccc(/C=C/C#Cc2ccc(C(F)(F)F)cc2)cc1)C(=O)NO [Example 114-6]
- MIC (AECO001 (ATCC25922)): < 2 µg/mL
- MIC [1]: < 2 µg/mL
- MIC (APAE001 (ATCC27853)): 2 to 16 µg/mL (≈ 4.64 to 37.1 µM)
- MIC [2]: 2 to 16 µg/mL (≈ 4.64 to 37.1 µM)
- MIC APAE006 + PMBN [3]: A (MIC's of 2.0 μg/mL or less = A)
- MIC [4]: 2 to 16 µg/mL (≈ 4.64 to 37.1 µM)
- MIC [5]: 2 to 16 µg/mL (≈ 4.64 to 37.1 µM)
- MIC (AECO001 HSA AGP): 2 to 16 µg/mL (≈ 4.64 to 37.1 µM)

Compound: C[C@@H](N)[C@H](NC(=O)c1ccc(C#CC#CC2CCCCC2)cc1)C(=O)NO [Example 91-4]
- MIC (AECO001 (ATCC25922)): < 2 µg/mL
- MIC [1]: < 2 µg/mL
- MIC (APAE001 (ATCC27853)): 2 to 16 µg/mL (≈ 5.44 to 43.5 µM)
- MIC [2]: < 2 µg/mL
- MIC APAE006 + PMBN [3]: A (MIC's of 2.0 μg/mL or less = A)
- MIC [4]: 2 to 16 µg/mL (≈ 5.44 to 43.5 µM)
- MIC [5]: 2 to 16 µg/mL (≈ 5.44 to 43.5 µM)
- MIC (AECO001 HSA AGP): 2 to 16 µg/mL (≈ 5.44 to 43.5 µM)

Compound: O=C(CNC1CC1)NC[C@H](NC(=O)c1ccc(C#C/C=C/c2ccc(CN3CCOCC3)cc2)cc1)C(=O)NO [Example 100-1, N—[(S)-2-(2-Cyclopropylamino-acetylamino)-1-hydroxycarbamoyl-ethyl]-4-[(E)-4-(4-morpholin-4-ylmethyl-phenyl)-but-3-en-1-ynyl]-benzamide]
- MIC (AECO001 (ATCC25922)): < 2 µg/mL
- MIC [1]: < 2 µg/mL
- MIC (APAE001 (ATCC27853)): 2 to 16 µg/mL (≈ 3.67 to 29.3 µM)
- MIC [2]: < 2 µg/mL
- MIC APAE006 + PMBN [3]: A (MIC's of 2.0 μg/mL or less = A)
- MIC [4]: 16 to 64 µg/mL (≈ 29.3 to 117 µM)
- MIC [5]: 16 to 64 µg/mL (≈ 29.3 to 117 µM)
- MIC (AECO001 HSA AGP): 2 to 16 µg/mL (≈ 3.67 to 29.3 µM)

Compound: C[C@@H](N)[C@H](NC(=O)c1ccc(/C=C/C#Cc2cccnc2)cc1)C(=O)NO [Example 114-9]
- MIC (AECO001 (ATCC25922)): 2 to 16 µg/mL (≈ 5.49 to 43.9 µM)
- MIC [1]: < 2 µg/mL
- MIC (APAE001 (ATCC27853)): < 2 µg/mL
- MIC [2]: < 2 µg/mL
- MIC APAE006 + PMBN [3]: A (MIC's of 2.0 μg/mL or less = A)
- MIC [4]: 2 to 16 µg/mL (≈ 5.49 to 43.9 µM)
- MIC [5]: 16 to 64 µg/mL (≈ 43.9 to 176 µM)
- MIC (AECO001 HSA AGP): 2 to 16 µg/mL (≈ 5.49 to 43.9 µM)
